Laboratory results published in patent US20100137144A1, “METHOD AND MEANS FOR DETECTING AND/OR QUANTIFYING HIERARCHICAL MOLECULAR CHANGE OF A CELL IN RESPONSE TO AN EXTERNAL STIMULUS” (Eppendorf Array Technologies S.A., priority 2005, published 2010).
“Also recorded” adds a separate entry of the source.

Legend:
[1] = test system: AP1 (c-Jun), STAT1, Elk-1, p53, c-Myc, ATF2, NFATc1 and MEF2 in MCF7 cells; test: TF Chip MAPK microarray: activated transcription factors in stimulated MCF7 cells; type: cell-based, human
MCF7 cells = test: DualChip human breast cancer microarray: gene expression in stimulated MCF7 cells; type: cell-based; details: 24 h; for Number of genes whose expression level is modified: out of 210
[2] = test system: AP1 (c-Jun), STAT1, Elk-1, p53, c-Myc, ATF2, NFATc1 and MEF2 in U937 cells; test: TF Chip MAPK microarray: activated transcription factors in stimulated U937 cells; type: cell-based, human; details: 1000 U/ml
Method: They are stimulated at 10.10^6 cells/75 cm^2 flask with IFNγ (1000 U/ml) for 15 min and 24 h or left untreated.
The activation of transcription factors is monitored on microarrays using the TF Chip MAPK kit from Eppendorf (Germany). The arrays contain double stranded DNA molecules as capture probes for the TF binding. The TF Chip MAPK allows the assay of AP1 (c-Jun), STAT1, Elk-1, p53, c-Myc, ATF2, NFATc1 and MEF2.
A blocking step is performed in a Blocking Solution (TF Chip MAPK kit, Eppendorf, Germany) for 1 h at RT, followed by a washing step using the Washing Buffer A (TF Chip MAPK kit, Eppendorf, Germany). The nuclear extracts are prepared as described in WO 01/73115. They are diluted in the Sample Dilution Solution and Binding Solution (TF Chip MAPK kit, Eppendorf, Germany) and contacted with the arrays. Incubation is performed for one hour at room temperature and under agitation at 600 rpm. Samples are removed and microarrays are washed 3 times.
A mix of primary antibodies (Primary Antibody Cocktail; TF Chip MAPK kit, Eppendorf, Germany), each specifically recognizing the activated form of a transcription factor to be detected and diluted in the Primary Antibody Solution (TF Chip MAPK kit, Eppendorf, Germany), is contacted with the microarrays for 1 h at RT, followed by 3 washing steps. Each microarray is then contacted with Cy3-labeled secondary antibodies under indirect light for 45 min at RT, followed by washing.
Hybridization chambers are removed, and slides are rinsed with Washing Buffer B (TF Chip MAPK kit, Eppendorf, Germany) and dried. A fluorescence detection of signals is performed by scanning slides using a laser confocal scanner “ScanArray” (Packard, USA) at a resolution of 10 μm. Signals are analyzed using the TF Chip MAPK Data analysis software.
The experiment was performed as described in example 1 with the cells being stimulated for 15 min and 24 h with IFNγ or IFNα at the same concentration (1000 U/ml).
The assays were performed on the TF Chip MAPK kit and on the DualChip® human RNAi side effect (Eppendorf, Germany) as in example 1. Table 2 presents the ratios for the genes whose values were found quantitative as explained in example 1. However, we investigated further the genes which were found positive for the IFNα response. For these genes, we incorporated into the table the values for the genes determined as quantitative for IFNγ but also the values for two genes, SERPINB2 and IFIT2, which were found qualitative, and the values for 4 other genes for which the ratios were significant when a confidence interval of 90% rather than the normal 95% is considered. These values are presented for sake of completing the information on the comparison between the two treatments and are marked with an asterisk.

U937 cells = test: DualChip human RNAi side effect microarray: gene expression in stimulated U937 cells; type: cell-based; details: for Number of genes exclusively regulated by this interferon: from 89 significant genes
Text: The DualChip® human RNAi side effect (Eppendorf, Germany) was used for assay of the changes in the gene expression.
The microarray contains, in triplicates, capture probes to analyze the expression of 260 human genes. In order to evaluate the entire experiment, several positive and negative controls (for hybridization and detection) as well as special capture probes for normalization are included. The DualChip® consists of two microarrays on one slide that has already been framed with a hybridization frame.
The instructions provided by the supplier were followed for the hybridization and the analysis of the results.

Molecule: C[C@]12CC[C@@H]3c4ccc(O)cc4CC[C@H]3[C@@H]1CC[C@@H]2O [β-Estradiol, β-estradiol]
- Activation state of c-Jun, ATF2, Elk-1 and STAT1 ([1]; MCF7 cells, 1 μM): did not highlight any modification in the activation state
- Activation of c-Myc ([1]; MCF7 cells, 1 μM, 24 h, cells confluent): reduced
- Activation of p53 ([1]; MCF7 cells, 1 μM, 24 h, cells confluent, possibly not specific to the treatment): triggered
- Activation of c-Myc ([1]; sub-confluent MCF7 cells, 1 μM, 4 h): fast activation
- Number of genes whose expression level is modified (MCF7 cells; 1 μM): 50 genes

Molecule: IFNα
- Activation of transcription factor STAT1 ([2]; 15 min, vs unstimulated cells): the only TF showing a specific signal in the treated cells
- Number of genes exclusively regulated by this interferon (U937 cells; 24 h, 1000 U/ml): 6 genes

Molecule: IFNγ: interferon γ, used at 1000 U/ml as stimulus of U937 cells
- Activation of transcription factor MEF2 [2]: activated in IFNγ stimulated and non stimulated conditions
- Activation of transcription factor STAT1 ([2]; 15 min, vs unstimulated cells): specifically activated; also recorded: fast activation; also recorded: the only TF showing a specific signal in the treated cells
- Activation of transcription factor STAT1 ([2]; 24 h): disappears after 24 h
- Activation of the 7 other transcription factors (AP1 (c-Jun), Elk-1, p53, c-Myc, ATF2, NFATc1, MEF2) ([2]; vs unstimulated cells): None of the 7 other ones (AP1 (c-Jun), Elk-1, p53, c-Myc, ATF2, NFATc1 and MEF2) were activated
- Number of genes affected at the two stimulation times (U937 cells; 15 min and 24 h): Five
- Differential expression of genes BAX and BCLX (U937 cells; 1000 U/ml): not found to be differentially expressed
- Number of genes whose expression level varies significantly (U937 cells; 1000 U/ml, 15 min and 24 h, quantitative analysis, 260 genes on array): 81 genes
- Expression level of gene FOS (U937 cells; 1000 U/ml, 24 h): returned to a basal level
- Number of genes exclusively regulated by this interferon (U937 cells; 24 h, 1000 U/ml): 62 genes
- Number of genes specifically affected by a 15 min treatment (U937 cells; out of 81): 4 genes
- Number of genes specifically modified after a 24 h treatment (U937 cells; out of 81): 72 genes

Molecule: hydrogen peroxide [H2O2]
- Activation state of c-Jun, Elk-1 and STAT1 ([1]; MCF7 cells, 200 μM): did not highlight any modification in the activation state
- Activation of ATF2, c-Myc, MEF2 and NFATc1 ([1]; MCF7 cells, 200 μM, 3 h): suppressed
- Activation of transcription factor p53 ([1]; MCF7 cells, 200 μM, 3 h and 24 h): activation of p53
- Activation of ATF2, c-Myc, MEF2 and NFATc1 ([1]; MCF7 cells, 200 μM, 24 h): restored to a basal level
- Regulation of genes p53, bcl-x and thrombospondin-1 (MCF7 cells; 200 μM): not shown experimentally to be regulated
- Number of apoptotic pathway genes affected (BAG and BAX) (MCF7 cells; 200 μM, of 9 on the array): 2 genes
- Number of genes whose expression level is modified (MCF7 cells; 200 μM): 16 genes
- Expression ratio, gene BAG-1 (MCF7 cells; 200 μM, vs untreated cells): 1.65
- Expression ratio, gene BAX (MCF7 cells; 200 μM, vs untreated cells): 1.86
- Expression ratio, gene CTSD (MCF7 cells; 200 μM, vs untreated cells): 1.65
- Expression ratio, gene FOXM1 (MCF7 cells; 200 μM, vs untreated cells): 0.55
- Expression ratio, gene K-alpha-1 (MCF7 cells; 200 μM, vs untreated cells): 0.63
- Expression ratio, gene MCM7 (MCF7 cells; 200 μM, vs untreated cells): 0.57
- Expression ratio, gene MDM2 (MCF7 cells; 200 μM, vs untreated cells): 1.73
- Expression ratio, gene MKi67 (MCF7 cells; 200 μM, vs untreated cells): 0.56
- Expression ratio, gene MYBL2 (MCF7 cells; 200 μM, vs untreated cells): 0.53
- Expression ratio, gene Muc1 (MCF7 cells; 200 μM, vs untreated cells): 1.64
- Expression ratio, gene NIFU (MCF7 cells; 200 μM, vs untreated cells): 1.53
- Expression ratio, gene ODC (MCF7 cells; 200 μM, vs untreated cells): 0.61
- Expression ratio, gene PPP1CB (MCF7 cells; 200 μM, vs untreated cells): 0.62
- Expression ratio, gene STMN1 (MCF7 cells; 200 μM, vs untreated cells): 0.54
- Expression ratio, gene TOB (MCF7 cells; 200 μM, vs untreated cells): 1.63
- Expression ratio, gene p21 (CDKN1A) (MCF7 cells; 200 μM, vs untreated cells): 3.26
